# Reference: ChEMBL document CHEMBL1201862, “PubChem BioAssay data set” (2004)
#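 96-well plates; 48 h exposure; 5 concentrations. Endpoints by linear interpolation between flanking doses. Not reached: highest tested concentration assigned. Abbreviation: GI50, concentration required for 50% inhibition of growth.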 Activity calls are given as the source filed them. Cut-off read from the data, not from the text of the source: active = GI50 up to about 1.1 µM and inactive = higher.
# What was measured:
# Assay in all cases: growth of human tumour cells (NCI), 48 h
# 786-0 = test system: 786-0
# A498 = test system: A498
# A549 = test system: A549
# ACHN = test system: ACHN
# BT-549 = test system: BT-549
# CAKI-1 = test system: CAKI-1
# CCRF-CEM = test system: CCRF-CEM
# COLO 205 = test system: COLO 205
# DU-145 = test system: DU-145
# EKVX = test system: EKVX
# HCC 2998 = test system: HCC 2998
# HCT-116 = test system: HCT-116
# HCT-15 = test system: HCT-15
# HOP-62 = test system: HOP-62
# HOP-92 = test system: HOP-92
# HT-29 = test system: HT-29
# Hs-578T = test system: Hs-578T
# IGROV-1 = test system: IGROV-1
# K562 = test system: K562
# KM12 = test system: KM12
# LOX IMVI = test system: LOX IMVI
# M14 = test system: M14
# MCF7 = test system: MCF7
# MDA-MB-231 = test system: MDA-MB-231
# MDA-MB-435 = test system: MDA-MB-435
# MDA-N = test system: MDA-N
# MOLT-4 = test system: MOLT-4
# Malme-3M = test system: Malme-3M
# NCI-H226 = test system: NCI-H226
# NCI-H23 = test system: NCI-H23
# NCI-H460 = test system: NCI-H460
# NCI-H522 = test system: NCI-H522
# NCI/ADR-RES = test system: NCI/ADR-RES
# OVCAR-3 = test system: OVCAR-3
# OVCAR-4 = test system: OVCAR-4
# OVCAR-5 = test system: OVCAR-5
# OVCAR-8 = test system: OVCAR-8
# PC-3 = test system: PC-3
# RPMI-8226 = test system: RPMI-8226
# RXF 393 = test system: RXF 393
# SF-268 = test system: SF-268
# SF-295 = test system: SF-295
# SF-539 = test system: SF-539
# SK-MEL-28 = test system: SK-MEL-28
# SK-MEL-2 = test system: SK-MEL-2
# SK-MEL-5 = test system: SK-MEL-5
# SK-OV-3 = test system: SK-OV-3
# SN12C = test system: SN12C
# SNB-19 = test system: SNB-19
# SNB-75 = test system: SNB-75
# SR = test system: SR
# SW-620 = test system: SW-620
# T47D = test system: T47D
# TK-10 = test system: TK-10
# U-251 = test system: U-251
# UACC-257 = test system: UACC-257
# UACC-62 = test system: UACC-62
# UO-31 = test system: UO-31
# HL-60 = test system: HL-60
compound,measurement,setting,value
NCCSCCC(=O)O,GI50,786-0,> 38.1 µM (inactive)
same,GI50,A498,> 68.7 µM (inactive)
same,GI50,A549,> 69.2 µM (inactive)
same,GI50,ACHN,> 25.6 µM (inactive)
same,GI50,BT-549,> 100 µM (inactive)
same,GI50,CAKI-1,> 59.2 µM (inactive)
same,GI50,CCRF-CEM,23 µM (inactive)
same,GI50,COLO 205,30.4 µM (inactive)
same,GI50,DU-145,> 52 µM (inactive)
same,GI50,EKVX,> 100 µM (inactive)
same,GI50,HCC 2998,28.6 µM (inactive)
same,GI50,HCT-116,> 56.6 µM (inactive)
same,GI50,HCT-15,> 59 µM
same,GI50,HOP-62,> 68.5 µM (inactive)
same,GI50,HOP-92,> 100 µM (inactive)
same,GI50,HT-29,> 84.1 µM (inactive)
same,GI50,Hs-578T,> 100 µM (inactive)
same,GI50,IGROV-1,> 100 µM (inactive)
same,GI50,K562,31.8 µM (inactive)
same,GI50,KM12,> 82.8 µM (inactive)
same,GI50,LOX IMVI,39 µM (inactive)
same,GI50,M14,> 74.8 µM (inactive)
same,GI50,MCF7,> 57.1 µM (inactive)
same,GI50,MDA-MB-231,> 100 µM (inactive)
same,GI50,MDA-MB-435,> 100 µM (inactive)
same,GI50,MDA-N,> 81.7 µM (inactive)
same,GI50,MOLT-4,29.7 µM (inactive)
same,GI50,Malme-3M,> 100 µM (inactive)
same,GI50,NCI-H226,> 100 µM (inactive)
same,GI50,NCI-H23,> 25.8 µM (inactive)
same,GI50,NCI-H460,> 12.4 µM (inactive)
same,GI50,NCI-H522,> 66.1 µM (inactive)
same,GI50,NCI/ADR-RES,> 69.8 µM (inactive)
same,GI50,OVCAR-3,> 100 µM (inactive)
same,GI50,OVCAR-4,> 100 µM (inactive)
same,GI50,OVCAR-5,> 100 µM (inactive)
same,GI50,OVCAR-8,> 84.3 µM (inactive)
same,GI50,PC-3,> 82 µM (inactive)
same,GI50,RPMI-8226,25.8 µM (inactive)
same,GI50,RXF 393,> 66.7 µM (inactive)
same,GI50,SF-268,> 77.3 µM (inactive)
same,GI50,SF-295,> 48.4 µM (inactive)
same,GI50,SF-539,21.9 µM (inactive)
same,GI50,SK-MEL-28,37.9 µM (inactive)
same,GI50,SK-MEL-2,> 83.8 µM (inactive)
same,GI50,SK-MEL-5,39.9 µM (inactive)
same,GI50,SK-OV-3,> 65.8 µM (inactive)
same,GI50,SN12C,> 43.1 µM (inactive)
same,GI50,SNB-19,> 94.8 µM (inactive)
same,GI50,SNB-75,> 40.3 µM (inactive)
same,GI50,SR,14.4 µM (inactive)
same,GI50,SW-620,19.7 µM (inactive)
same,GI50,T47D,> 33.5 µM (inactive)
same,GI50,TK-10,> 67.1 µM (inactive)
same,GI50,U-251,> 44 µM (inactive)
same,GI50,UACC-257,> 59 µM (inactive)
same,GI50,UACC-62,> 45.4 µM (inactive)
same,GI50,UO-31,> 100 µM (inactive)
COC(=O)C1Cc2cc3c(cc2C1=O)CCCC3 (stereo not given),GI50,786-0,66.5 µM (inactive)
same,GI50,A498,53.5 µM (inactive)
same,GI50,A549,> 100 µM (inactive)
same,GI50,ACHN,94.6 µM (inactive)
same,GI50,BT-549,22.3 µM (inactive)
same,GI50,CAKI-1,54.1 µM (inactive)
same,GI50,CCRF-CEM,37.2 µM (inactive)
same,GI50,COLO 205,> 100 µM (inactive)
same,GI50,DU-145,45.8 µM (inactive)
same,GI50,EKVX,46.8 µM (inactive)
same,GI50,HCC 2998,> 100 µM (inactive)
same,GI50,HCT-116,42.3 µM (inactive)
same,GI50,HCT-15,43.2 µM
same,GI50,HL-60,29.2 µM (inactive)
same,GI50,HOP-62,48.6 µM (inactive)
same,GI50,HT-29,61.8 µM (inactive)
same,GI50,Hs-578T,48.4 µM (inactive)
same,GI50,IGROV-1,67.5 µM (inactive)
same,GI50,K562,33.6 µM (inactive)
same,GI50,KM12,34.3 µM (inactive)
same,GI50,LOX IMVI,67 µM (inactive)
same,GI50,M14,> 100 µM (inactive)
same,GI50,MCF7,42 µM (inactive)
same,GI50,MDA-MB-231,63.7 µM (inactive)
same,GI50,MDA-MB-435,> 100 µM (inactive)
same,GI50,MDA-N,> 100 µM (inactive)
same,GI50,MOLT-4,41.2 µM (inactive)
same,GI50,Malme-3M,> 100 µM (inactive)
same,GI50,NCI-H226,23.8 µM (inactive)
same,GI50,NCI-H23,43.2 µM (inactive)
same,GI50,NCI-H460,> 100 µM (inactive)
same,GI50,NCI-H522,80.5 µM (inactive)
same,GI50,NCI/ADR-RES,48.9 µM (inactive)
same,GI50,OVCAR-3,> 100 µM (inactive)
same,GI50,OVCAR-4,64.9 µM (inactive)
same,GI50,OVCAR-5,72.9 µM (inactive)
same,GI50,OVCAR-8,46.6 µM (inactive)
same,GI50,PC-3,30.8 µM (inactive)
same,GI50,RPMI-8226,45.9 µM (inactive)
same,GI50,SF-268,62.1 µM (inactive)
same,GI50,SF-295,62.1 µM (inactive)
same,GI50,SF-539,> 100 µM (inactive)
same,GI50,SK-MEL-28,> 100 µM (inactive)
same,GI50,SK-MEL-2,> 100 µM (inactive)
same,GI50,SK-MEL-5,48 µM (inactive)
same,GI50,SK-OV-3,27.1 µM (inactive)
same,GI50,SN12C,77.4 µM (inactive)
same,GI50,SNB-19,56.5 µM (inactive)
same,GI50,SNB-75,70.3 µM (inactive)
same,GI50,SR,30.3 µM (inactive)
same,GI50,SW-620,47 µM (inactive)
same,GI50,T47D,37.6 µM (inactive)
same,GI50,TK-10,28 µM (inactive)
same,GI50,U-251,43.5 µM (inactive)
same,GI50,UACC-257,> 100 µM (inactive)
same,GI50,UACC-62,> 100 µM (inactive)
same,GI50,UO-31,51.9 µM (inactive)
